Test results from patent US9439906B2, “Dosing regimen associated with long acting injectable paliperidone esters” (Janssen Pharmaceutica NV, priority 2007, dated 2016).

Key:
[1] = Pharmacokinetic profile of gluteal versus deltoid i.m. injections of paliperidone palmitate 100 mg-eq. (four injections); assay type: in vivo, human
Procedure: This study was performed to characterize and compare the pharmacokinetic profile of paliperidone palmitate (formulated as described above) following four intramuscular injections in the deltoid or gluteal muscle.
Plasma samples for pharmacokinetic analyses were collected.

[2] = Pharmacokinetics in phase 3 study R092670-PSY-3007; assay type: in vivo, human; conditions: Day 8, 3 dose groups
Procedure: Subjects without source documentation of previous exposure to at least 2 doses of oral risperidone or paliperidone extended-release (ER), at least 1 dose of i.m. RISPERDAL® CONSTA® or paliperidone palmitate, or who were not currently receiving an antipsychotic medication were given 4 to 6 days of paliperidone ER 6 mg/day (or the option of oral risperidone 3 mg/day for subjects in Malaysia) for tolerability testing. Subjects who had source documentation of previous exposure to the above medications and were currently taking another antipsychotic regimen continued their current treatment through Day-1. At the beginning of the double-blind treatment period, subjects were randomly assigned in a 1:1:1:1 ratio to 1 of 4 treatment groups: placebo or paliperidone palmitate 25 mg eq., 100 mg eq., or 150 mg eq. Study medication was administered as 4 doses: an initial i.m. injection of 150 mg eq. of paliperidone palmitate or placebo followed by 3 fixed i.m. doses of placebo or paliperidone palmitate [25, 100, or 150 mg eq.] on Days 8, 36, and 64. The initial injection of study medication was given in the deltoid muscle. Subsequent injections were given either in the deltoid or gluteal muscle at the discretion of the investigator. […] Efficacy and safety were evaluated regularly throughout the study. […]

[3] = tested on: subjects with schizophrenia; assay: Efficacy in phase 3 placebo-controlled study R092670-PSY-3007 (PANSS, PSP, CGI-S); assay type: in vivo, human; conditions: for PANSS Total Score End point Mean (SD): LOCF; for PANSS Total Score Change from Baseline Mean (SD): end point LOCF, placebo −2.9; for mean improvement in the PSP score from baseline to end point: placebo 1.7; for subjects who achieved responder status (30% or larger decrease on PANSS total scores): placebo 20.0%
Description: The study included a screening period of up to 7 days and a 13-week double-blind treatment period. The screening period included a washout of disallowed psychotropic medications. […] Subjects who had source documentation of previous exposure to the above medications and were currently taking another antipsychotic regimen continued their current treatment through Day-1. At the beginning of the double-blind treatment period, subjects were randomly assigned in a 1:1:1:1 ratio to 1 of 4 treatment groups: placebo or paliperidone palmitate 25 mg eq., 100 mg eq., or 150 mg eq. Study medication was administered as 4 doses: an initial i.m. injection of 150 mg eq. of paliperidone palmitate or placebo followed by 3 fixed i.m. doses of placebo or paliperidone palmitate [25, 100, or 150 mg eq.] on Days 8, 36, and 64. The initial injection of study medication was given in the deltoid muscle. Subsequent injections were given either in the deltoid or gluteal muscle at the discretion of the investigator. Randomized subjects were to remain in the study for 28 days after the last injection on Day 64 with the end of study visit scheduled for Day 92 during the double-blind period. The entire study, including the screening period, lasted approximately 14 weeks. Samples for pharmacokinetic (PK) evaluation were collected on Day 1, prior to the first injection and on Days 2, 4, 6, 8, 15, 22, 36, 64 and 92. Efficacy and safety were evaluated regularly throughout the study. A pharmacogenomic blood sample (10 mL) was collected from subjects who gave separate written informed consent for this part of the study. Participation in the pharmacogenomic research was optional. Approximately 105 to 115 mL of whole blood was collected during the study. The primary endpoint was the change in the PANSS total score from baseline (i.e., the start of double-blind treatment, Day 1) to the end of the double-blind treatment period (i.e., Day 92 or the last post baseline assessment). The key secondary efficacy endpoint was the change in the Personal and Social Performance Scale (PSP) from baseline to the end of the double-blind treatment period. The other secondary efficacy endpoint was the change in the Clinical Global Impression-Severity (CGI-S) scores from baseline to the end of the double-blind treatment period. Other endpoints included the change from baseline in subject ratings of sleep quality and daytime drowsiness using a visual analogue scale (VAS), the onset of therapeutic effect, responder rate, and the change from baseline to end point in PANSS subscales and […] factors. All randomized subjects who received at least 1 dose of double-blind study drug and had both baseline and at least one post baseline efficacy measurement (PANSS, PSP, or CGI-S) during the double-blind treatment period were included in the intent-to-treat efficacy analyses. […] This procedure is referred to as the Dunnett-Bonferroni-based parallel gatekeeping procedure. The change from baseline in PANSS total score at each visit and at end point was analyzed using an analysis of covariance (ANCOVA) model. The last observation carried forward (LOCF) method was used. The model included treatment and country as factors and baseline PANSS total score as a covariate. Treatment effect was based on the difference in least-squares mean change. […] Treatment-by-country and treatment-by-baseline PANSS total score interactions were explored using the same ANCOVA model as the one for the analysis of the primary endpoint. If either term was statistically significant at the predefined 2-sided significance level of 0.10, further evaluations of the effect of other covariates were to be performed to assess the nature of the interaction and identify possible causes. […] The analysis of the key secondary endpoint, change in PSP score at end point, was conducted by means of an ANCOVA model with treatment and country as factors and the baseline score as the covariate. […]

[4] = Safety and local tolerability in the gluteal versus deltoid multiple-dose study; conditions: for mean injection site pain VSA score: day 1, 8 hours after injection
[5] = 100 mg-eq., combined injection sites

## CCCCCCCCCCCCCCCC(=O)OC1CCCn2c1nc(C)c(CCN1CCC(c3noc4cc(F)ccc34)CC1)c2=O (racemic) [paliperidone palmitate, (±)-3-[2-[4-(6-fluoro-1,2-benzisoxazol-3-yl)-1-piperidinyl]ethyl]-6,7,8,9-tetrahydro-2-methyl-4-oxo-4H-pyrido[1,2-α]pyrimidin-9-yl hexadecanoate]
[1]; after four injections
  median AUC∞, deltoid versus gluteal: similar
[1]; both deltoid and gluteal
  Relative exposure after the fourth injection versus after the second injection: slightly lower
[2]
  median paliperidone plasma concentrations in high BMI compared to low BMI (<25 kg/m^2) subjects: lower
[3]; 25 mg eq. and 150 mg eq. groups
  earliest time point of statistically significant improvement over placebo in change in PANSS total score: Day 8
[3]; 25 mg eq. group
  PANSS Total Score change, Diff of LS Means (SE) versus placebo: −5.1 (2.01)
  PANSS Total Score Change from Baseline Mean (SD): −8.0 (19.90)
  mean improvement in the PSP score from baseline to end point: 2.9
  subjects who achieved responder status (30% or larger decrease on PANSS total scores): 33.5%
[3]; 25 mg eq. group (150 mg eq. Day 1, then 25 mg eq. Days 8, 36, 64)
  PANSS Total Score End point Mean (SD): 78.8 (19.88)
[3]; 100 mg eq. group
  PANSS Total Score change, Diff of LS Means (SE) versus placebo: −8.7 (2.00)
  PANSS Total Score Change from Baseline Mean (SD): −11.6 (17.63)
  mean improvement in the PSP score from baseline to end point: 6.1
  subjects who achieved responder status (30% or larger decrease on PANSS total scores): 41.0%
[3]; 100 mg eq. group (150 mg eq. Day 1, then 100 mg eq. Days 8, 36, 64)
  PANSS Total Score End point Mean (SD): 74.6 (18.06)
[3]; 150 mg eq. group
  PANSS Total Score change, Diff of LS Means (SE) versus placebo: −9.8 (2.00)
  PANSS Total Score Change from Baseline Mean (SD): −13.2 (18.48)
  mean improvement in the PSP score from baseline to end point: 8.3
  subjects who achieved responder status (30% or larger decrease on PANSS total scores): 40.0%
[3]; 150 mg eq. group (150 mg eq. Days 1, 8, 36, 64)
  PANSS Total Score End point Mean (SD): 75.2 (18.59)
[3]; all 3 dose groups
  time point as of which improvement over placebo in change in PANSS total score was statistically significant: Day 22
[4]; [5]
  adverse event: diastolic hypotension: 12%
  adverse event: hypotension: 14%
  adverse event: injection site pain: 14%
  adverse event: orthostatic hypotension: 24%
[4]; 100 mg-eq., four injections
  deaths in the study: no deaths
  serious adverse events (worsening of psychosis) that led to discontinuations: four
  tolerability: well tolerated
[4]; deltoid
  mean injection site pain VSA score: 10.8
[4]; gluteal
  mean injection site pain VSA score: 3.3
